Laboratory results taken from patent US20050220779A1, “Integrin linked kinase modulation of macrophage activation” (priority 2001, published 2005).

What was measured:
[1] = system: BALB/c cells (primary peritoneal macrophages); assay: LPS-IFN-γ-induced macrophage NO production (Griess nitrite assay), BALB/c cells; assay type: cell-based, mouse; settings: 50 μM, 24 h; for NO release (%): relative to DMSO treated cells; for inhibition at 50 µM: Mus musculus, Peritoneal macrophage
Procedure: (§1) Isolation of primary mouse macrophages. Peritoneal exudate macrophages were isolated by peritoneal lavage with ice-cold sterile physiological saline 24 h after intraperitoneal injection of BALB/c and CB57BL/6 mice with 0.3 ml of sterile Zymosan A (1 mg/0.5 ml 0.9% saline). Cells were washed, resuspended in RPMI 1640 supplemented with 2 mM L-glutamine, 100 units/ml penicillin, 100 μg/ml streptomycin, and 5% FBS.
(§2) Treatment of primary macrophages and RAW 264.7 cells. Primary macrophages (1.5×10^5 cells/well) and RAW 264.7 (4×10^4 cells/well) cells were grown in 96-well plates (nitrite assay), or 6-well plates (2×10^6 cells/well) for measurement of iNOS and COX-2 expression. Following 3 h incubation, at 37 C, 5% CO2 (macrophages were allowed to attach) cells were stimulated with LPS (0.5 μg/ml) and IFN-γ (100 U/ml) in the absence or presence of various concentrations of ILK inhibitors (all treatments were replicated six times). Cells were incubated for an additional 24 h, and cell free culture supernatants from each well were collected for NO and cytokine determination. The remaining cells were stained with crystal violet to determine effect of the inhibitors on cell survival.
(§3) NO production. Following stimulation, the production of NO was determined by assaying culture supernatants for NO2^−, a stable reaction product of NO with molecular oxygen. Briefly, 100 μl of culture supernatant was reacted with an equal volume of Griess reagent at room temperature for 10 min. The absorbance at 550 nm was determined. All measurements were performed six times. The concentration of NO2^−was calculated by comparison with a standard curve prepared using NaNO2.
(§4) Effects of ILK inhibitors on LPS-IFN-γ-induced NO release. […] […] To compare the effect of the compounds across three different cell types, the NO release for each cell type was expressed relative to DMSO treated cells. […] For example, macrophages from Balb/c and C57BL/6 mice responded similarly to the treatment with the compounds.

[2] = system: C57BL/6 cells (primary peritoneal macrophages); assay: LPS-IFN-γ-induced macrophage NO production (Griess nitrite assay), C57BL/6 cells; assay type: cell-based, mouse; settings: 50 μM, 24 h; for NO release (%): relative to DMSO treated cells; for inhibition at 50 µM: Mus musculus, Peritoneal macrophage
Procedure: as §1, §2, §3, §4

[3] = system: BALB/c cells (primary peritoneal macrophages); assay: Cell survival by crystal violet staining, BALB/c cells; assay type: cell-based; settings: 24 h, 50 μM
Procedure: as §2, with “Primary macrophages (1.5×10^5 cells/well) and RAW 264.7 (4×10^4 cells/well) cells were grown in 96-well plates (nitrite assay), or 6-well plates (2×10^6 cells/well) for measurement of iNOS and COX-2 expression.” left out
Effect of ILK Inhibitors on suppression of NO production and cell survival. Twenty-four hours following treatment with the ILK inhibitors, aliquots from the cell-free supernatants were assayed for NO and IL-6 release. Surviving cells were stained and fixed (crystal violet 0.05% in 20% ethanol), to determine if the decrease in NO production was related to a decrease in cell number due to toxicity of the compounds.

## N=C(N)N/N=C/c1ccc(Cl)cc1Cl [KP-16735]
[1]
  NO release (%): −4.2%
  inhibition at 50 µM: 106%
[2]
  NO release (%): −7.0%
  inhibition at 50 µM: 114%
[3]; BALB/c, mouse
  Survival (%): 73%

## Oc1ccc2c(c1)CC1NCCc3cc(O)c(O)c-2c31 (stereo not shown) [KP-21849, 5,6,6a,7-Tetrahydro-4H-dibenzo[de,g]quinoline-1,2,9-triol]
[1]
  NO release (%): −4.2%
  inhibition at 50 µM: 110%
[2]
  NO release (%): −8.0%
  inhibition at 50 µM: 118%
[3]; BALB/c cells, DMSO-treated = 100%
  Survival (%): 41%
